Experimental data published in patent publication US11066396B2 (priority 2016, dated 2021).

Columns and labels:
HDAC5 = HDAC5 (Homo sapiens (Human), UniProt Q9UQL6); settings: read-out: HDAC5 IC50
HDAC1 = HDAC1 (Homo sapiens (Human), UniProt Q13547); settings: read-out: HDAC1 IC50
HDAC8 = HDAC8 (Homo sapiens (Human), UniProt Q9BY41); settings: read-out: HDAC8 IC50
Sequence of HDAC8 (Q9BY41 whole entry): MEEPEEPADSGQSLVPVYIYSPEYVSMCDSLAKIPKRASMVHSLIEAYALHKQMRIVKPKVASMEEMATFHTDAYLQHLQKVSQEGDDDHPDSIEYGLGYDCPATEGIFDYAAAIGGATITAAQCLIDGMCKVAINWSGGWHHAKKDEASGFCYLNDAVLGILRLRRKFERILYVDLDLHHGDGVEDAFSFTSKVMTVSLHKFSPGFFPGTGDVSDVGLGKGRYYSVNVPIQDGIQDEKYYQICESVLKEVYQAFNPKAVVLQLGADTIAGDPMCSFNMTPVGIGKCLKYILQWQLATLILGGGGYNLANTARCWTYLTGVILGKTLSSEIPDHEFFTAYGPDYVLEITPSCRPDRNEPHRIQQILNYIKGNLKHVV

Sequence of HDAC1 (Q13547 whole entry): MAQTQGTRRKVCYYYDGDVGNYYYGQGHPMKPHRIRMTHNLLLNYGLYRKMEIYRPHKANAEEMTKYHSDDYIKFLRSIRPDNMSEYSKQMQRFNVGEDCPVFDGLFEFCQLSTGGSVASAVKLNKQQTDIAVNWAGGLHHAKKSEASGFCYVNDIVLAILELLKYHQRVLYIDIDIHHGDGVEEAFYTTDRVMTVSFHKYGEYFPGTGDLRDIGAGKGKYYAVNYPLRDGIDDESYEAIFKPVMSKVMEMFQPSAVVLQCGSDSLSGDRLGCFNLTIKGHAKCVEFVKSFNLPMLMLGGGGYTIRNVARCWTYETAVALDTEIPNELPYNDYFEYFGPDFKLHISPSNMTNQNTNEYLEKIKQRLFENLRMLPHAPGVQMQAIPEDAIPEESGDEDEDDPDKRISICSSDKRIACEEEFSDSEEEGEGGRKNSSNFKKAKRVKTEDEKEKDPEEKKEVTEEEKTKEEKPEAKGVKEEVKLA
Sequence of HDAC5 (Q9UQL6 656-1122): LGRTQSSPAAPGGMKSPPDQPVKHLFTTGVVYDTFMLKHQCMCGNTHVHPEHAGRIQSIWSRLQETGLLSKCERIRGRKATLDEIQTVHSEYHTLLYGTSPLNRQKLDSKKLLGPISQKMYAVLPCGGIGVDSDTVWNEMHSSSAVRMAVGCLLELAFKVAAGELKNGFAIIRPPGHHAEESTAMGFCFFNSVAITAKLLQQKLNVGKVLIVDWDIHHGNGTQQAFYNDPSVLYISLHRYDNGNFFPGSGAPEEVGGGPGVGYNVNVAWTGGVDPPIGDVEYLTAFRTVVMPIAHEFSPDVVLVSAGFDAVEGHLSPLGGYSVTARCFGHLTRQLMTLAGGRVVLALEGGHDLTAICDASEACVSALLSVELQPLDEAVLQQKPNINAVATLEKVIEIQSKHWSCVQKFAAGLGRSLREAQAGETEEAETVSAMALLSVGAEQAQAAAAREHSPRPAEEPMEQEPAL

Row | Structure (SMILES) | IC50 (HDAC5) | IC50 (HDAC1) | IC50 (HDAC8)
1 | O=C(NC(Cc1ccc(-c2noc(C(F)(F)F)n2)cn1)c1cccc(C(F)(F)F)c1)C(F)(F)F (stereo not drawn) [Example 176, 2,2,2-Trifluoro-N-(2-(5-(5-(trifluoromethyl)-1,2,4-oxadiazol-3-yl)pyridin-2-yl)-1-(3-(trifluoromethyl)phenyl)ethyl)acetamide] | 320 nM | 1300 nM | 45000 nM
2 | CC(=O)NC(Cc1ccc(-c2noc(C(F)(F)F)n2)cn1)c1cccc(C(F)(F)F)c1 (stereo not drawn) [Example 177, N-(2-(5-(5-(Trifluoromethyl)-1,2,4-oxadiazol-3-yl)pyridin-2-yl)-1-(3-(trifluoromethyl)phenyl)ethyl)acetamide] | 420 nM | 530 nM | 4500 nM
3 | CS(=O)(=O)NC(Cc1ccc(-c2noc(C(F)(F)F)n2)cn1)c1cccc(C(F)(F)F)c1 (stereo not drawn) [Example 178, N-(2-(5-(5-(Trifluoromethyl)-1,2,4-oxadiazol-3-yl)pyridin-2-yl)-1-(3-(trifluoromethyl)phenyl)ethyl)methanesulfonamide] | 320 nM | 410 nM | 3700 nM
4 | Cc1nc(Cl)cnc1COc1ccc(-c2noc(C(F)(F)F)n2)cn1 [Example 184, 3-(6-((5-Chloro-3-methylpyrazin-2-yl)methoxy)pyridin-3-yl)-5-(trifluoromethyl)-1,2,4-oxadiazole] | 1100 nM | 2300 nM | 2700 nM
5 | Cc1cc(C)nc(COc2nccc(-c3noc(C(F)(F)F)n3)c2Cl)n1 [Example 186, 3-(3-Chloro-2-((4,6-dimethylpyrimidin-2-yl)methoxy)pyridin-4-yl)-5-(trifluoromethyl)-1,2,4-oxadiazole] | 850 nM | 8100 nM | 3900 nM
6 | Fc1c(-c2noc(C(F)(F)F)n2)ccnc1OCc1nc(C2CC2)no1 [Example 187, 3-Cyclopropyl-5-(((3-fluoro-4-(5-(trifluoromethyl)-1,2,4-oxadiazol-3-yl)pyridin-2-yl)oxy)methyl)-1,2,4-oxadiazole] | 220 nM | 1500 nM | 1500 nM
7 | O=C(COc1cc(-c2noc(C(F)(F)F)n2)ccn1)N1CCOCC1 [Example 190, 1-Morpholino-2-((4-(5-(trifluoromethyl)-1,2,4-oxadiazol-3-yl)pyridin-2-yl)oxy)ethan-1-one] | 550 nM | 2200 nM | 1100 nM
8 | O=C(NCc1ccc(-c2noc(C(F)(F)F)n2)cc1)C1CCCC1 [Example 191, N-(4-(5-(Trifluoromethyl)-1,2,4-oxadiazol-3-yl)benzyl)cyclopentanecarboxamide] | 940 nM | 2200 nM | 2900 nM
9 | CC(C)NC(=O)OCc1ccc(-c2noc(C(F)(F)F)n2)cn1 [Example 192, (5-(5-(Trifluoromethyl)-1,2,4-oxadiazol-3-yl)pyridin-2-yl)methyl isopropylcarbamate] | 640 nM | 660 nM | 1800 nM
10 | CNC(=O)OCc1ccc(-c2noc(C(F)(F)F)n2)cn1 [Example 194, {5-[5-(trifluoromethyl)-1,2,4-oxadiazol-3-yl]pyridin-2-yl}methyl methylcarbamate] | 610 nM | 1700 nM | 1300 nM
11 | O=C(NC1CCOCC1)OCc1ccc(-c2noc(C(F)(F)F)n2)cn1 [Example 195, {5-[5-(trifluoromethyl)-1,2,4-oxadiazol-3-yl]pyridin-2-yl}methyl oxan-4-ylcarbamate] | 660 nM | 780 nM | 1600 nM
12 | CN(C(=O)[C@@H]1COCC(=O)N1c1ccc(-c2noc(C(F)(F)F)n2)c(F)c1)C(C)(C)C [Example 196, (3S)-N-tert-butyl-4-{3-fluoro-4-[5-(trifluoromethyl)-1,2,4-oxadiazol-3-yl]phenyl}-N-methyl-5-oxomorpholine-3-carboxamide] | 300 nM | 6900 nM | 6300 nM
